The record followed here is a melting point compilation (Tetko et al.).

Structures are written as SMILES.

The term melting point denotes the temperature of the solid-liquid transition. `N#CSc1ccc(N)c(C(=O)O)c1` showed a melting point of 165 to 168 °C.
`COC(=O)c1occc1C` returned a melting point of 35 °C.
`O=C(C1CCNCC1)N1CCCC1` came in with a melting point of 45 to 47 °C.
`ClC(Cl)=CBr` registered a melting point of -88.5 °C.
In turn, `O=[N+]([O-])c1ccc(CCc2ccc([N+](=O)[O-])cc2)cc1` returned a melting point of 181 °C.
`CC12CCC(=O)CC1CCC13OC14CCC(=O)C4(C)CCC23` (stereo not drawn) yielded a melting point of 171 to 173 °C.
`Cn1c(S(=O)(=O)O)nc2ccccc21` returned a melting point of 341 °C.
With `CN(C(=S)Cl)c1ccc(F)cc1` the figure was 92 to 94 °C; with `NC(=O)c1cccc(C(=O)O)c1`, 280 °C; with `O=C(Cl)c1ccc2c(c1)OCCCO2`, 29 to 33 °C.
`Cc1cc(CO)n[nH]1`: the melting point was 78 to 80 °C.
`N#Cc1c(C(F)(F)F)cc(-c2ccccc2)nc1S`: the melting point came to 181 °C.
`Cn1c(=O)c(C2=NNC(=O)C2=Cc2ccc3c(c2)OCO3)c(O)c2ccccc21`: the melting point was 265 °C.
On to `COc1ccc(C#N)cc1Br`, for which the melting point came to 122 °C.
In turn, `CCCCCCCCCC(=O)CCCCCCCCC` gave a melting point of 65.5 °C.
Compound `CC(=O)OCCN(CCOC(C)=O)CCOC(C)=O` returned a melting point of -40 °C.
Consider `Cc1ccc(-c2onc(C(=O)c3cccs3)c2S(=O)(=O)c2ccccc2)cc1`, for which the melting point was 128 °C.
The compound `COc1ccc(C2CC(c3ccc4ccccc4c3)=NN2C(N)=O)cc1` (stereo not drawn) returned a melting point of 173 to 175 °C.
In turn, `CN(C)C(=O)C(C(F)(F)F)C(F)(F)F` showed a melting point of 54 °C.
`O=C(O)C(O)C(=O)O` showed a melting point of 157 °C.
In the case of `CC1(O)CNC(=O)C1` (stereo not drawn), the melting point was determined as 140 °C.
Turning to `CC(C)(O)C12CC3CC(CC(C3)C1)C2`, the melting point came to 75 °C.
For the compound `CCC(N)CO` (stereo not drawn), the melting point was -2 °C.
With `O=C(Cl)c1ccsc1` the figure was 50 to 54 °C; with `Nc1ccc(O)c(C(=O)O)c1`, 284 °C.
Take `CCOC(=O)C1Cc2cc3c(cc2NC1=O)NC(=O)C(C(=O)OCC)C3` (stereo not drawn): the melting point is 242 °C.
`NS(=O)(=O)c1cccc(C(=O)c2ccccc2)c1` had a melting point of 144 °C.
`COc1ccc(-c2occ(C(=O)c3ccccc3)c2S(=O)(=O)c2ccccc2)cc1` yielded a melting point of 110 °C.
The compound `c1ccc(CCNc2cccc3cccnc23)cc1` had a melting point of 57.6 °C.
`COc1ccc([N+](=O)[O-])cc1N=C=S` returned a melting point of 105 to 107 °C.
With `O=C(O)CSc1ccc(F)cc1` the figure was 78 °C.
Take `COC(=O)C1=C(N)CCN(Cc2ccccc2)C1`: the melting point lay within 87 to 89 °C.
For `O=C1CCCc2c(O)cccc21`, the melting point was 207 to 210 °C.
In the case of `CCC1(c2ccc(N)cc2)CCC(=O)NC1=O` (stereo not drawn) it was 150 °C; in that of `Cc1c(-c2ccccc2)oc(-c2ccccc2)c(C)c1=O`, 144 °C; in that of `CN1CCC(=C2c3ccccc3CC(=O)c3sccc32)CC1`, 152 °C.
On to `Nc1nnc(-c2ccccc2)c(-c2ccccc2)n1`, for which the melting point is 177 to 179 °C.
On to `COc1c(F)ccc(C(N)=O)c1F`, for which the melting point was found to be 112 °C.
In the case of `COc1cc2c(c(OC)c1OC)C(=O)[C@]1(OC)C=C[C@H]2N(c2ccccc2)O1` it was 114 °C; in that of `C=C1C2CC(CC2NS(=O)(=O)c2ccc(C)cc2)C1(C)C` (stereo not drawn), 110 to 114 °C.
On to `Cc1ccncc1/C=C/C(=O)O`, for which the melting point was 137 °C.
In turn, `COC(=O)c1ccc(Br)c(C)c1` had a melting point of 42 °C.
Take `FCCCl`: the melting point is -50 °C.
As to `O=C1C(c2cccc(C3=[N+]([O-])c4cc([N+](=O)[O-])ccc4C3=O)c2)=[N+]([O-])c2cc([N+](=O)[O-])ccc21`, the melting point worked out at 287 °C.
In the case of `CC(=O)OC1CC2C3CCC(C(C)CCCC(C)C)C3(C)CCC2C2(C)CCC(O)CC12O` (stereo not drawn), the melting point is 141 °C.
In the case of `CCCC1Nn2c(nnc2-c2ccc(OCC)cc2)S1` (stereo not drawn) it was 90 °C.
`Nc1ccc(C(=O)O)c(Cl)c1` registered a melting point of 210 to 215 °C.
`CC(C)(C)NC(=S)NC(C)(C)C` displayed a melting point of 168 to 171 °C.
In the case of `Cc1cc(Cl)ccc1N=CN(C)C` it was 35 °C; in that of `NC(=NO)c1cc(F)c(F)cc1F`, 91 to 92 °C.
With `N#Cc1ccccc1N1CCCCC1`, the melting point was in the range of 45 to 48 °C.
For `ClCC1CCN(c2ncnc3ccsc23)CC1`, the melting point was in the range of 99 to 100 °C.
In the case of `Cc1nnc(NS(=O)(=O)c2ccc(N)cc2)s1` it was 208 °C; in that of `Cc1nc(-c2ccccc2)sc1C(=O)Cl`, 122 to 124 °C; in that of `O=C(CCl)Nc1ccc(Cl)cc1`, 168 to 170 °C.
In the case of `CC(C)C1=CC2=CCC3C(C)(C(=O)O)CCCC3(C)C2CC1` (stereo not drawn), the melting point amounted to 174 °C.
`O=C1CCC2OCC(c3ccccc3)N12` (stereo not drawn) displayed a melting point of 76 to 80 °C.
As for `COc1cc(F)c(C=O)cc1F`, the melting point is 99 °C.
`N#CC1CN(C(c2ccccc2)c2ccccc2)C1` gave a melting point of 153 to 156 °C.
Turning to `COC(=O)c1cccc(Cn2nc(C)c(Br)c2C)c1`, the melting point was 105 to 107 °C.
`O=C(Cl)c1csc(-c2ccccc2)n1` gave a melting point of 100 °C.
`COc1ccc2c(c1)CCC(C(=O)O)C2C` (stereo not drawn) returned a melting point of 133 °C.
Compound `C[Si](C)(C)OC1(C#N)c2ccccc2CCc2ccccc2C1(C#N)O[Si](C)(C)C` (stereo not drawn) displayed a melting point of 88 °C.
In turn, `O=Cc1ccc(-c2ccccn2)cc1` yielded a melting point of 51 to 53 °C.
In the case of `CCOC(C)=NOc1ccc([N+](=O)[O-])cc1[N+](=O)[O-]` it was 112 °C; in that of `Clc1cc(Br)ccc1I`, 35 to 37 °C.
The compound `Cc1ccc(S(=O)(=O)OCCOCc2ccccc2)cc1` showed a melting point of 48 to 51 °C.
In the case of `O=C1c2ccccc2C(=O)c2c(O)cccc21`, the melting point was found to be 194 °C.
Turning to `c1ccc(C2OCCCO2)cc1`, the melting point was 41 °C.
`COc1cc(OC)c(C(=O)/C=C/c2cc3c(cc2[N+](=O)[O-])OCO3)c(OC)c1`: the melting point turned out to be 224 °C.
Compound `Cc1cc(Br)cc(Cl)c1N` yielded a melting point of 38.5 °C.
Consider `CC1(C)CC(=O)[C@]2(C)C=C[C@H]1N(c1ccccc1)O2`, for which the melting point was 56.9 °C.
With `Nc1ccc(Nc2ccc(N)cc2)cc1`, the melting point was 158 °C.
In the case of `Brc1ccc(C#Cc2ccc(Br)cc2)cc1`, the melting point lay in the range of 182 to 184 °C.
In turn, `CC(CP(c1ccccc1)c1ccccc1)P(c1ccccc1)c1ccccc1` (stereo not drawn) showed a melting point of 68 to 73 °C.
In the case of `CN(C)C1CSSC1`, the melting point was found to be 177 °C.
On to `CC(C)(C#N)C(C)(C)C#N`, for which the melting point was 170 °C.
Turning to `CC(C)C(C)(C)[Si](C)(C)Cl`, the melting point amounted to 15 °C.
With `CCCCC(CC)COC(=O)C=CC(=O)OCC(CC)CCCC` (stereo not drawn) the figure was -10 °C.
In the case of `COc1ccc(F)c(C=O)c1OC` it was 46 °C; in that of `O=[N+]([O-])c1cc(O)ccc1Cl`, 127 °C.
In the case of `O=C(O)CCS` it was 18 °C; in that of `Cc1ccccc1C=C1C(=O)OC(C)(C)OC1=O`, 142 °C.
`CC(O)C(O)C(O)C(O)C=O` (stereo not drawn): the melting point is 122 °C.
As for `O=C(O)c1ccccc1CCc1ccccc1`, the melting point is 127 to 132 °C.
For the compound `C[Si](C)(C)OS(=O)(=O)O[Si](C)(C)C`, the melting point fell in the range of 47 to 50 °C.
`O=C=Nc1c(Br)cc(F)cc1Br` yielded a melting point of 44 °C.
For `CC1(C(=O)O)CCC(CCc2ccccc2)C1(C)C` (stereo not drawn), the melting point was determined as 118 °C.
With `O=S(=O)(O)CS(=O)(=O)O` the figure was 98 °C; with `CN(C)c1ccc2nc3ccc(=O)cc-3sc2c1`, 216 °C.
As for `Cc1cnc(N)c(C)n1`, the melting point was 96 °C.
Compound `Cc1c(C(=O)c2ccccc2C(=O)O)sc2ccccc12` displayed a melting point of 181 to 183 °C.
Compound `CC1CN2CC(=O)Nc3ccc(Cl)cc3C2(c2ccccc2)O1` (stereo not drawn) displayed a melting point of 186 °C.
Take `CCOC(=O)c1nn(-c2cc(-c3ccc(OC)cc3)n[nH]2)c(=N)c(-c2nc3ccccc3s2)c1C`: the melting point was determined as 175 °C.
The compound `Cc1ccc(C(c2ccc(C)o2)c2cc(Br)cc(Br)c2O)o1` yielded a melting point of 88 °C.
The compound `CC(C)(C)OC(=O)N1CCSCC1C(=O)O` (stereo not drawn) registered a melting point of 145 to 147 °C.
The compound `CN(C)C(=O)CCC(=O)O` gave a melting point of 84.5 °C.
In the case of `N#C/C(=C\c1ccccc1O)c1nc2ccccc2s1`, the melting point stood at 188 °C.
In the case of `N#CC1(C#N)C2O[C@H](c3ccccc3)[C@@H](C3=C2CCCC3)C1(C#N)C#N` it was 168 °C; in that of `NC(=O)c1ccco1`, 141 °C.
With `Cc1cc(N=Nc2ccccc2C)ccc1N` the figure was 101 to 102 °C; with `Cc1cc(C(C)(C)C)cc(C(C)(C)C)c1`, 32 °C.
For the compound `COC(=O)CNC(SC)=C(C#N)C#N`, the melting point is 90 °C.
Compound `O=C(O)c1cccc(S(=O)(=O)Oc2ccc3ccccc3c2)c1` gave a melting point of 155 °C.
Compound `C=C1C(=O)OC2CC3(C)CCCC(C)C3=CC12` (stereo not drawn) yielded a melting point of 76 °C.
On to `CCCSP(=S)(OCC)Oc1ccc(SC)cc1` (stereo not drawn), for which the melting point was -15 °C.
Compound `COc1cc(OC)nc(NC(=O)NS(=O)(=O)c2ncccc2C(=O)N(C)C)n1` registered a melting point of 145 °C.
Compound `O=C(C=Cc1ccc(F)cc1)c1ccccc1` gave a melting point of 84 to 88 °C.
As for `Clc1ccc(Cl)c(Cl)c1`, the melting point stood at 17 °C.
In turn, `COC(=O)c1cccc2c1-c1ccccc1C2=O` showed a melting point of 135 to 136 °C.
Regarding `OC1OCCCC1(Cl)Cl` (stereo not drawn), the melting point lay in the range of 87 to 90 °C.
The compound `O=Cc1cccc(O)c1O` showed a melting point of 104 to 109 °C.
`Cc1nc(C=O)c[nH]1` showed a melting point of 165 °C.
